The record followed here is PubChem BioAssay AID248 (DTP/NCI, 2004).

This experiment has as its system L1210 leukemia ip in BDF1 mice, survival T/C. Nature of the experiment: NCI In Vivo Anticancer Drug Screen. Data for tumor model L1210 Leukemia (intraperitoneal) in B6D2F1 (BDF1) mice. Particulars: endpoint: mean survival time, higher = longer survival. Summed up:
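Read-out is survival time, reported as the treated-group measurement over the vehicle-control measurement.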

Where [1] appears, read: dose: 100.0 mg/kg/injection, schedule: Q04DX003 (ip), vehicle: saline with Tween-80.
[2] abbreviates: dose: 200.0 mg/kg/injection, schedule: Q04DX003 (ip), vehicle: saline with Tween-80.
[3] abbreviates: dose: 400.0 mg/kg/injection, schedule: Q04DX003 (ip), vehicle: saline with Tween-80.

Several values for one entry are separate records, joined by “and”; a condition that tells them apart may be missing. Identical values can stand only once. Inconclusive results and toxic doses are left out.

Regarding `Cc1ccc(S(=O)(=O)NC(=O)C(C)Br)cc1` (configuration not stated), the T/C was 95 % of control (dose: 150.0 mg/kg/injection, schedule: Q01DX001 (ip), vehicle: steriod suspending solution) and 95 % of control (dose: 300.0 mg/kg/injection, schedule: Q01DX001 (ip), vehicle: steriod suspending solution).

Regarding `CC(=O)[O][Hg][c]1cc(C)c(O)c([N+](=O)[O-])c1`, the T/C runs as follows: (dose: 1.56 mg/kg/injection, schedule: Q04DX003 (ip), vehicle: Klucel (hydroxypropylcellulose) (HPC)) 105 % of control; (dose: 3.12 mg/kg/injection, schedule: Q01DX009 (ip), vehicle: Klucel (hydroxypropylcellulose) (HPC)) 95 % of control; (dose: 3.12 mg/kg/injection, schedule: Q04DX003 (ip), vehicle: Klucel (hydroxypropylcellulose) (HPC)) 115 % of control; (dose: 6.25 mg/kg/injection, schedule: Q01DX009 (ip), vehicle: Klucel (hydroxypropylcellulose) (HPC)) 96 % of control; (dose: 6.25 mg/kg/injection, schedule: Q04DX003 (ip), vehicle: Klucel (hydroxypropylcellulose) (HPC)) 117 % of control; (dose: 12.5 mg/kg/injection, schedule: Q04DX003 (ip), vehicle: Klucel (hydroxypropylcellulose) (HPC)) 109 % of control.

As to `COc1cc(N(CCCl)CCCl)c(OC)cc1C=Nc1ccc(-c2csc(Cc3ccccc3)n2)c(Cl)c1`, the T/C is 115 % of control (dose: 12.5 mg/kg/injection, schedule: Q01DX001 (ip), vehicle: carboxymethylcellulose (CMC)); 105 % of control (dose: 25.0 mg/kg/injection, schedule: Q01DX001 (ip), vehicle: carboxymethylcellulose (CMC)); 108 % of control (dose: 50.0 mg/kg/injection, schedule: Q01DX001 (ip), vehicle: carboxymethylcellulose (CMC)); 115 % of control (dose: 88.0 mg/kg/injection, schedule: Q01DX001 (ip), vehicle: carboxymethylcellulose (CMC)); 110 % of control (dose: 88.0 mg/kg/injection, schedule: Q01DX009 (ip), vehicle: carboxymethylcellulose (CMC)); 94 % of control (dose: 133.0 mg/kg/injection, schedule: Q01DX009 (ip), vehicle: carboxymethylcellulose (CMC)). Moreover, the T/C reads like this: (dose: 150.0 mg/kg/injection, schedule: Q01DX001 (ip), vehicle: carboxymethylcellulose (CMC)) 153 % of control; (dose: 300.0 mg/kg/injection, schedule: Q01DX001 (ip), vehicle: carboxymethylcellulose (CMC)) 176 % of control and 182 % of control.

Turning to `CC(C)CN1C(c2ccccc2)=CN(Cc2ccccc2)C=C1c1ccccc1`, the T/C by setting is: (dose: 100.0 mg/kg/injection, schedule: Q04DX002 (ip), vehicle: Klucel (hydroxypropylcellulose) (HPC)) 100 % of control; (dose: 200.0 mg/kg/injection, schedule: Q04DX002 (ip), vehicle: Klucel (hydroxypropylcellulose) (HPC)) 120 % of control; (dose: 400.0 mg/kg/injection, schedule: Q04DX002 (ip), vehicle: Klucel (hydroxypropylcellulose) (HPC)) 113 % of control.

On to `CC(CCN(CC(=O)O)CC(=O)O)N(CC(=O)O)CC(=O)O` (configuration not stated), for which the T/C is 98 % of control (dose: 100.0 mg/kg/injection, schedule: Q01DX001 (ip), vehicle: saline); 101 % of control (dose: 200.0 mg/kg/injection, schedule: Q01DX001 (ip), vehicle: saline); 93 % of control (dose: 400.0 mg/kg/injection, schedule: Q01DX001 (ip), vehicle: saline).

With `O=C(c1ccccc1)c1cccc([N+](=O)[O-])c1`, the T/C was 98 % of control under setting [1], 93 % of control under setting [2] and 89 % of control under setting [3].

With `CSc1ccccc1NC(=O)NCCCl`, the T/C was 100 % of control (dose: 100.0 mg/kg/injection, schedule: Q01DX009 (ip), vehicle: saline) and 98 % of control (dose: 200.0 mg/kg/injection, schedule: Q01DX009 (ip), vehicle: saline).

For `Cc1cc(N(CCCl)CCCl)ccc1C=Nc1ccccc1-c1ccccc1`, the T/C is, setting by setting: (dose: 5.0 mg/kg/injection, schedule: Q01DX Z (ip), vehicle: carboxymethylcellulose (CMC)) 110 % of control; (dose: 10.0 mg/kg/injection, schedule: Q01DX Z (ip), vehicle: carboxymethylcellulose (CMC)) 114 % of control; (dose: 40.0 mg/kg/injection, schedule: Q01DX Z (ip), vehicle: carboxymethylcellulose (CMC)) 109 % of control; (dose: 80.0 mg/kg/injection, schedule: Q01DX Z (ip), vehicle: carboxymethylcellulose (CMC)) 117 % of control.

For the compound `CC1(C)OC2OC(COS(C)(=O)=O)C(O)C2O1` (configuration not stated), the T/C (dose: 12.5 mg/kg/injection, schedule: Q01DX009 (ip), vehicle: Klucel (hydroxypropylcellulose) (HPC)) was 100 % of control; the T/C (dose: 25.0 mg/kg/injection, schedule: Q01DX009 (ip), vehicle: Klucel (hydroxypropylcellulose) (HPC)) was 105 % of control; the T/C (dose: 50.0 mg/kg/injection, schedule: Q01DX009 (ip), vehicle: Klucel (hydroxypropylcellulose) (HPC)) is 105 % of control; the T/C (dose: 50.0 mg/kg/injection, schedule: Q04DX003 (ip), vehicle: Klucel (hydroxypropylcellulose) (HPC)) is 92 % of control; the T/C (dose: 100.0 mg/kg/injection, schedule: Q01DX009 (ip), vehicle: Klucel (hydroxypropylcellulose) (HPC)) was 103 % of control; the T/C (dose: 100.0 mg/kg/injection, schedule: Q04DX003 (ip), vehicle: Klucel (hydroxypropylcellulose) (HPC)) was 100 % of control. Besides, the T/C is 91 % of control (dose: 200.0 mg/kg/injection, schedule: Q04DX003 (ip), vehicle: Klucel (hydroxypropylcellulose) (HPC)) and 102 % of control (dose: 400.0 mg/kg/injection, schedule: Q04DX003 (ip), vehicle: Klucel (hydroxypropylcellulose) (HPC)).

As to `C[n+]1c(-c2ccccc2)c2cc(N)ccc2c2ccccc21`, the T/C was 108 % of control (dose: 0.2 mg/kg/injection, schedule: Q01DX Z (ip), vehicle: methylcellulose (MC)); 113 % of control (dose: 0.3 mg/kg/injection, schedule: Q01DX Z (ip), vehicle: methylcellulose (MC)); 102 % of control and 114 % of control (dose: 0.5 mg/kg/injection, schedule: Q01DX Z (ip), vehicle: methylcellulose (MC)); 111 % of control (dose: 0.75 mg/kg/injection, schedule: Q01DX Z (ip), vehicle: methylcellulose (MC)); 107 % of control and 120 % of control (dose: 1.0 mg/kg/injection, schedule: Q01DX Z (ip), vehicle: methylcellulose (MC)); 104 % of control (dose: 1.5 mg/kg/injection, schedule: Q01DX Z (ip), vehicle: methylcellulose (MC)). Also, the T/C runs as follows: (dose: 1.5 mg/kg/injection, schedule: Q01DX Z (ip), vehicle: saline) 111 % of control; (dose: 2.0 mg/kg/injection, schedule: Q01DX Z (ip), vehicle: carboxymethylcellulose (CMC)) 106 % of control; (dose: 2.0 mg/kg/injection, schedule: Q01DX Z (ip), vehicle: methylcellulose (MC)) 110 % of control and 113 % of control; (dose: 3.0 mg/kg/injection, schedule: Q01DX Z (ip), vehicle: carboxymethylcellulose (CMC)) 112 % of control; (dose: 3.0 mg/kg/injection, schedule: Q01DX Z (ip), vehicle: methylcellulose (MC)) 117 % of control; (dose: 3.0 mg/kg/injection, schedule: Q01DX Z (ip), vehicle: saline) 117 % of control. For the same compound, the T/C was 121 % of control (dose: 4.0 mg/kg/injection, schedule: Q01DX Z (ip), vehicle: methylcellulose (MC)); 110 % of control (dose: 4.4 mg/kg/injection, schedule: Q01DX Z (ip), vehicle: carboxymethylcellulose (CMC)); 120 % of control (dose: 6.6 mg/kg/injection, schedule: Q01DX Z (ip), vehicle: carboxymethylcellulose (CMC)); 121 % of control and 122 % of control (dose: 8.0 mg/kg/injection, schedule: Q01DX Z (ip), vehicle: methylcellulose (MC)); 100 % of control (dose: 10.0 mg/kg/injection, schedule: Q01DX001 (ip), vehicle: saline); 117 % of control (dose: 20.0 mg/kg/injection, schedule: Q01DX001 (ip), vehicle: saline). The T/C runs as follows: (dose: 24.0 mg/kg/injection, schedule: Q01DX Z (ip), vehicle: saline) 112 % of control; (dose: 40.0 mg/kg/injection, schedule: Q01DX001 (ip), vehicle: saline) 100 % of control.

As to `Cc1nn(C2CC(OC(=O)c3ccc([N+](=O)[O-])cc3)C(OC(=O)c3ccc([N+](=O)[O-])cc3)C(COC(=O)c3ccc([N+](=O)[O-])cc3)O2)c(=O)[nH]c1=O` (configuration not stated), the T/C is, setting by setting: (dose: 100.0 mg/kg/injection, schedule: Q01DX005 (ip), vehicle: saline) 100 % of control; (dose: 200.0 mg/kg/injection, schedule: Q01DX005 (ip), vehicle: saline) 96 % of control.

In the case of `CCNC(=O)C1C2C=CC(C2)C1C(=O)NCC` (configuration not stated), the T/C was 91 % of control under setting [1], 96 % of control under setting [2] and 87 % of control under setting [3].

With `CCCCCCCCCCCCOc1ccccc1OC`, the T/C reads like this: (dose: 100.0 mg/kg/injection, schedule: Q01DX001 (ip), vehicle: Klucel (hydroxypropylcellulose) (HPC)) 89 % of control; (dose: 200.0 mg/kg/injection, schedule: Q01DX001 (ip), vehicle: Klucel (hydroxypropylcellulose) (HPC)) 90 % of control; (dose: 400.0 mg/kg/injection, schedule: Q01DX001 (ip), vehicle: Klucel (hydroxypropylcellulose) (HPC)) 95 % of control.
